Target: T1, OR51I2 (Homo sapiens, UniProt Q9H344)
T1 construct: expressed in transfected cells; host or cells: HEK293
T1 sequence (Q9H344 1-312): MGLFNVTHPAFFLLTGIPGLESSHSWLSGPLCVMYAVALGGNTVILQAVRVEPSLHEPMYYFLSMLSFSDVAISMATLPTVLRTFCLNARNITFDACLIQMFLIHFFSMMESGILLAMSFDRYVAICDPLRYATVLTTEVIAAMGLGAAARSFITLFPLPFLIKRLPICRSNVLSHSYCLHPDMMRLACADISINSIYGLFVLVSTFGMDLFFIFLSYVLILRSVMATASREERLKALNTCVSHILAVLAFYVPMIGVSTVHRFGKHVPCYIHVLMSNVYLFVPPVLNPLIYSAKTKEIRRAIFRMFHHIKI
Assay: Luciferase reporter gene assay, OR51I2 expressed in HEK293 cells
Type: cell-based
Conditions: 1 mM hexanoic acid; test substance 3, 10, 30, 100, 300 μM (FIG. 4)
Experimental: (§1) Cloning of human olfactory receptors was performed based on the sequence information registered in GenBank, through PCR with human genomic DNA female (G1521: Promega) as a template. Each of the genes amplified through PCR was inserted into a pENTR vector (Invitrogen) according to an instruction manual. Then, the gene-inserted vector was digested with NotI and AscI, and the obtained fragments were inserted into NotI and AscI sites located downstream of the Flag-Rho tag sequence in the pME18S vector.
(§2) Each of the 350 types of human olfactory receptors was expressed in HEK293 cells. A reaction solution having a composition shown in Table 2 was prepared on a clean bench, and left to stand for 15 minutes. The solution was dispensed to each well of a 96-well plate (BD). Subsequently, […] cells (100 μL, 3×10^5 cells/cm^2) were seeded in each well and cultured for 24 hours in an incubator at 37° C. and under 5% CO2 conditions.
(§3) The olfactory receptor expressed in HEK293 cell was conjugated with cell-intrinsic Gas to activate adenylate cyclase, and thereby the level of intracellular cAMP was increased. For the measurement of the response to odor in this study, the luciferase reporter gene assay was used, in which an increase in the amount of intracellular cAMP was monitored by using the emission value originating from firefly luciferase gene (fluc2P-CRE-hygro) as an indicator. Furthermore, a gene product obtained by fusing renilla luciferase gene in the downstream of CMV promoter (hRluc-CMV) was simultaneously introduced, and this was used as an internal standard for correcting an error in the transgenesis efficiency or the number of cells. The medium was removed from the culture prepared in the above-described section 3) by using a Pipetman, and 75 μl of a solution containing an odor substance (1 mM hexanoic acid or 300 μM nonanoic acid) prepared in CD293 medium (Invitrogen) was added thereto. The cells were cultured for 4 hours in a CO2 incubator, and the luciferase gene was sufficiently expressed in the cells. For the measurement of luciferase activity, the measurement was carried out by using a Dual-Glo™ luciferase assay system (Promega) according to the operation manual of the product. A value calculated by dividing the emission value, derived from a firefly luciferase induced by the stimulation with an odor substance, by the emission value in cells that were not-stimulated with an odor substance, was designated as a fold increase, and used as an index of response intensity.
(§4) OR2W1, OR10A6, OR51E1, OR51I2, and OR51L1 were respectively expressed in HEK293 cells by the same method as that used in Example 1, and a luciferase assay was carried out. In the luciferase assay, hexanoic acid was used as the odorous substance, and test substances were added together with hexanoic acid. The response of the olfactory receptors to hexanoic acid was measured, and a decrease in the receptor response to the addition of test substances was evaluated.
(§5) The inhibition ratios of the receptor response to test substances were calculated as follows. The emission value (Y) obtained from the cells in which the same receptors were introduced but no odor stimulation was conducted, was subtracted from the emission value derived from firefly luciferase (X) induced by odor stimulation with hexanoic acid alone. Similarly, the emission value (Y) obtained from the cells in which no odor stimulation was conducted, was subtracted from the emission value (Z) caused by stimulation with a mixture of hexanoic acid and a test substance. By the following calculation formula, the inhibitory activity of the test substance to receptor response was calculated based on the increment of the emission value (X−Y) caused by stimulation of hexanoic acid alone. Multiple independent experiments were performed in duplicate, and the average of each experiment was obtained. Inhibition ratio (%)={1−(Z−Y)/(X−Y)}×100 […]

Which “Inhibition of OR51I2 response to hexanoic acid (in words)” value does the source give for `CC(C)(C)c1ccc(CCC=O)cc1` [Bourgeonal, 3-(4-tert-butylphenyl)propanal] here?
The value was “in a concentration-dependent manner”.

Same assay, conditions: fold increase of luciferase emission; 1 mM hexanoic acid or 300 μM nonanoic acid, or concentration series up to 1000 μM

With `CC(C)CC(=O)O` [isovaleric acid, reference compound] as the compound, how does the “Response of OR51I2 to the odor substance” value read?
The value was “concentration-dependent response”.

Same assay, conditions: response to hexanoic acid; test substance added together with hexanoic acid; HEK293

Which “Inhibition ratio of OR51I2 response” value does the source give for `CC(C)C1CCC(C)(CO)CC1` (stereo not shown) [4-Isopropyl-1-methylcyclohexylmethanol, 4-isopropyl-1-methylcyclohexylmethanol] here?
Its value is 2 (Inhibition ratio: 20% to 50%).

For `CC(C)C1CCC(C=O)CC1` (stereo not shown) [4-Isopropylcyclohexanecarbaldehyde, 4-isopropylcyclohexanecarbaldehyde], which “Inhibition ratio of OR51I2 response” value is on record?
The value was 2 (Inhibition ratio: 20% to 50%).

For `CC(C)(C)c1ccc(CCC=O)cc1` [Bourgeonal, 3-(4-tert-butylphenyl)propanal], which “Inhibition ratio of OR51I2 response” value is on record?
The value was 1 (Inhibition ratio: 50% or higher).

With `CC(C)c1ccc(C=O)cc1` [Cuminaldehyde, 4-isopropylbenzaldehyde] as the compound, how does the “Inhibition ratio of OR51I2 response” value read?
Its value is 2 (Inhibition ratio: 20% to 50%).

For `CC(C=O)Cc1ccc(C(C)C)cc1` (stereo not shown) [Cyclamen aldehyde, 3-(4-isopropylphenyl)-2-methylpropanal], which “Inhibition ratio of OR51I2 response” value is on record?
Its value is 2 (Inhibition ratio: 20% to 50%).

For `CC(CC=O)CCCC(C)(C)O` (stereo not shown) [Hydroxycitronellal, 3,7-dimethyl-7-hydroxyoctanal], which “Inhibition ratio of OR51I2 response” value is on record?
The value was 2 (Inhibition ratio: 20% to 50%).

Which “Inhibition ratio of OR51I2 response” value does the source give for `CC(C=O)Cc1ccc(C(C)(C)C)cc1` (stereo not drawn) [Lilial, p-tert-butyl-α-methylhydrocinnamaldehyde] here?
Its value is 2 (Inhibition ratio: 20% to 50%).

Target: T2, OR51E1 (Homo sapiens, UniProt Q8TCB6)
T2 construct: expressed in transfected cells; host or cells: HEK293
T2 sequence (Q8TCB6 1-318): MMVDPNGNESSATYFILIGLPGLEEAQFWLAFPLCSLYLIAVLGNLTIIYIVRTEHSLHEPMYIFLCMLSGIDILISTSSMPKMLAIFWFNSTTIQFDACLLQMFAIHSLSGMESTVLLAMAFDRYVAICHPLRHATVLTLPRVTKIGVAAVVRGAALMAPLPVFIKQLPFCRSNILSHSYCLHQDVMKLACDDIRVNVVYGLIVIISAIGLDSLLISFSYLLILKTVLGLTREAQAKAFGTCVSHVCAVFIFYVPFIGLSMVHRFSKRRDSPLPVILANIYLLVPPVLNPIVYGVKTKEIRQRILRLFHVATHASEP
Assay: Luciferase reporter gene assay, OR51E1 expressed in HEK293 cells
Type: cell-based
Conditions: 1 mM hexanoic acid; test substance 3, 10, 30, 100, 300 μM (FIG. 4)
Experimental: as §1, §2, §3, §4, §5

For `CC(C)(C)c1ccc(CCC=O)cc1` [Bourgeonal, 3-(4-tert-butylphenyl)propanal], which “Inhibition of OR51E1 response to hexanoic acid (in words)” value is on record?
The value was “in a concentration-dependent manner”.

Same assay, conditions: fold increase of luciferase emission; 1 mM hexanoic acid or 300 μM nonanoic acid, or concentration series up to 1000 μM

With `CC(C)CC(=O)O` [isovaleric acid, reference compound] as the compound, how does the “Response of OR51E1 to the odor substance” value read?
Its value is “concentration-dependent response”.

Same assay, conditions: response to hexanoic acid; test substance added together with hexanoic acid; HEK293

Which “Inhibition ratio of OR51E1 response” value does the source give for `CC(C)(C)c1ccc(CCC=O)cc1` [Bourgeonal, 3-(4-tert-butylphenyl)propanal] here?
The value was 1 (Inhibition ratio: 50% or higher).

With `CC(CC=O)CCCC(C)(C)O` (stereo not shown) [Hydroxycitronellal, 3,7-dimethyl-7-hydroxyoctanal] as the compound, how does the “Inhibition ratio of OR51E1 response” value read?
The value was 2 (Inhibition ratio: 20% to 50%).

Target: T3, OR2W1 (Homo sapiens, UniProt Q9Y3N9)
T3 construct: expressed in transfected cells; host or cells: HEK293
T3 sequence (Q9Y3N9 1-320): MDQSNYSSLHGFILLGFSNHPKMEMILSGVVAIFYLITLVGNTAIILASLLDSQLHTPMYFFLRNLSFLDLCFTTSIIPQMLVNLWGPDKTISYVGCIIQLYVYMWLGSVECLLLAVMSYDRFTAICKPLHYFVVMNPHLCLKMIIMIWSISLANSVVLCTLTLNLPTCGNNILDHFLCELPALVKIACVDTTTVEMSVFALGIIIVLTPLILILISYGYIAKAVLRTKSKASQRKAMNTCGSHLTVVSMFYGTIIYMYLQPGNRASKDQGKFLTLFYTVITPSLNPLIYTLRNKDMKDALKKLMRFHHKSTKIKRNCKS
Assay: Luciferase reporter gene assay, OR2W1 expressed in HEK293 cells
Type: cell-based
Conditions: 1 mM hexanoic acid; test substance 3, 10, 30, 100, 300 μM (FIG. 4)
Experimental: as §1, §2, §3, §4, §5

For `CC(C)(C)c1ccc(CCC=O)cc1` [Bourgeonal, 3-(4-tert-butylphenyl)propanal], which “Inhibition of OR2W1 response to hexanoic acid (in words)” value is on record?
Its value is “in a concentration-dependent manner”.

Same assay, conditions: response to hexanoic acid; test substance added together with hexanoic acid; HEK293

For `CC(C)(C)c1ccc(CCC=O)cc1` [Bourgeonal, 3-(4-tert-butylphenyl)propanal], which “Inhibition ratio of OR2W1 response” value is on record?
The value was 1 (Inhibition ratio: 50% or higher).

With `CC(C=O)Cc1ccc(C(C)(C)C)cc1` (stereo not drawn) [Lilial, p-tert-butyl-α-methylhydrocinnamaldehyde] as the compound, how does the “Inhibition ratio of OR2W1 response” value read?
The value was 2 (Inhibition ratio: 20% to 50%).

Test system: not listed separately
Assay: Sensory evaluation test of hexanoic acid odor inhibition
Type: in vivo
Conditions: hexanoic acid odor; malodor alone rated as 5; 0 to 10 points; test substance diluted 100 times with propylene glycol; three panelists
Experimental: Cotton balls were introduced into a glass bottle (Hakuyo Glass Co., Ltd. No. 11, capacity 110 ml), and hexanoic acid diluted 100 times with propylene glycol, nonanoic acid diluted 10 times with propylene glycol, or isovaleric acid diluted 1000 times with propylene glycol, as a malodor, and a test substance were added dropwise in an amount of […] to the cotton balls. The glass bottle was left to stand overnight at room temperature, and the odor molecules were sufficiently volatilized in the glass bottle. A sensory evaluation test was carried out by a panel of three panelists (5 panelists for isovaleric acid), and while the intensity of odor in the case of adding dropwise the malodor alone was rated as 5, the intensity of the malodor in the case of incorporating a test substance was evaluated on the basis of a system of 20 grades from 0 point to 10 points (0.5 points per grade).
Regarding the test substance, florhydral (Givaudan SA), bourgeonal (Givaudan SA), hydroxycitronellal (Givaudan SA, International Flavors & Fragrances, Inc., and the like), 4-isopropylcyclohexanecarbaldehyde (synthesized according to a method described in JP-A-2-188549), 4-(2-methoxyphenyl)-2-methyl-2-butanol (JP-A-9-111281), florosa (Givaudan SA), isocyclocitral (Givaudan SA, International Flavors & Fragrances, Inc., and the like), tripral (International Flavors & Fragrances, Inc.), and Pollenal II (Kao Corp.), which had been diluted 100 times with propylene glycol, were used for hexanoic acid; florhydral that had been diluted 10 times with propylene glycol was used for nonanoic acid; and florhydral that had been diluted 1000 times with propylene glycol was used for isovaleric acid.

For `CC(C)C1CCC(C=O)CC1` (stereo not shown) [4-Isopropylcyclohexanecarbaldehyde, 4-isopropylcyclohexanecarbaldehyde], which Intensity of odor is on record?
The Intensity of odor was 2.17.

For `CC(C)(C)c1ccc(CCC=O)cc1` [Bourgeonal, 3-(4-tert-butylphenyl)propanal], which Intensity of odor is on record?
Its Intensity of odor is 3.13.

With `CC(CC=O)CCCC(C)(C)O` (stereo not shown) [Hydroxycitronellal, 3,7-dimethyl-7-hydroxyoctanal] as the compound, how does the Intensity of odor read?
The Intensity of odor was 2.25.

Same assay, conditions: sensory test; test substance diluted 100 times with propylene glycol (FIG. 5, Table 4)

With `CC(C)C1CCC(C=O)CC1` (stereo not shown) [4-Isopropylcyclohexanecarbaldehyde, 4-isopropylcyclohexanecarbaldehyde] as the compound, how does the “Inhibition of hexanoic acid odor (in words)” value read?
Its value is “inhibit the hexanoic acid odor”.

Which “Inhibition of hexanoic acid odor (in words)” value does the source give for `CC(C)(C)c1ccc(CCC=O)cc1` [Bourgeonal, 3-(4-tert-butylphenyl)propanal] here?
The value was “markedly inhibited”.

Which “Inhibition of hexanoic acid odor (in words)” value does the source give for `CC(CC=O)CCCC(C)(C)O` (stereo not shown) [Hydroxycitronellal, 3,7-dimethyl-7-hydroxyoctanal] here?
The value was “inhibit the hexanoic acid odor”.

Target: T4, OR51L1 (Homo sapiens, UniProt Q8NGJ5)
T4 construct: expressed in transfected cells; host or cells: HEK293
T4 sequence (Q8NGJ5 1-315): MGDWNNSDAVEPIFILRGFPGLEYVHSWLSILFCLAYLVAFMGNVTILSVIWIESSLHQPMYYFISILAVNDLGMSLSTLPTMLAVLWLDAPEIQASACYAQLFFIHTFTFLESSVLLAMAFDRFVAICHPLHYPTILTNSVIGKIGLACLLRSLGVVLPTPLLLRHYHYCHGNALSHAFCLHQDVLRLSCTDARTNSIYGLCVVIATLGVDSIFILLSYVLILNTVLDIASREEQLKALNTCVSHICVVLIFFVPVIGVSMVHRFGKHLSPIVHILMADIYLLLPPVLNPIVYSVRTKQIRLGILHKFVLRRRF
Assay: Luciferase reporter gene assay, OR51L1 expressed in HEK293 cells
Type: cell-based
Conditions: 1 mM hexanoic acid; test substance 3, 10, 30, 100, 300 μM (FIG. 4)
Experimental: as §1, §2, §3, §4, §5

Which “Inhibition of OR51L1 response to hexanoic acid (in words)” value does the source give for `CC(C)(C)c1ccc(CCC=O)cc1` [Bourgeonal, 3-(4-tert-butylphenyl)propanal] here?
Its value is “in a concentration-dependent manner”.

Same assay, conditions: response to hexanoic acid; test substance added together with hexanoic acid; HEK293

With `CC(C)(C)c1ccc(CCC=O)cc1` [Bourgeonal, 3-(4-tert-butylphenyl)propanal] as the compound, how does the “Inhibition ratio of OR51L1 response” value read?
Its value is 1 (Inhibition ratio: 50% or higher).

For `CC(CC=O)CCCC(C)(C)O` (stereo not shown) [Hydroxycitronellal, 3,7-dimethyl-7-hydroxyoctanal], which “Inhibition ratio of OR51L1 response” value is on record?
The value was 2 (Inhibition ratio: 20% to 50%).
